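96-well plates; 48 h exposure; 5 concentrations. Endpoints by linear interpolation between flanking doses. Not reached: highest tested concentration assigned. The concentration for full growth arrest is given as TGI.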
What was measured:
Test in all cases: NCI tumour cell line growth inhibition, 48 h
[1] = system: 786-0 renal
[2] = system: A549 NSCLC
[3] = system: BT-549 breast
[4] = system: CAKI-1 renal
[5] = system: COLO 205 colon
[6] = system: HCC-2998 colon
[7] = system: HCT-116 colon
[8] = system: KM12 colon
[9] = system: LOX IMVI melanoma
[10] = system: MALME-3M melanoma
[11] = system: MDA-MB-231 breast
[12] = system: NCI-H23 lung
[13] = system: NCI-H460 lung
[14] = system: PC-3 prostate
[15] = system: RXF 393 renal
[16] = system: SK-MEL-2 melanoma
[17] = system: SNB-75 CNS
[18] = system: SR leukemia
[19] = system: TK-10 renal
[20] = system: UACC-257 melanoma

| SMILES | TGI [1] [µM] | TGI [2] [µM] | TGI [3] [µM] | TGI [4] [µM] | TGI [5] [µM] | TGI [6] [µM] | TGI [7] [µM] | TGI [8] [µM] | TGI [9] [µM] | TGI [10] [µM] | TGI [11] [µM] | TGI [12] [µM] | TGI [13] [µM] | TGI [14] [µM] | TGI [15] [µM] | TGI [16] [µM] | TGI [17] [µM] | TGI [18] [µM] | TGI [19] [µM] | TGI [20] [µM] |
| --- | --- | --- | --- | --- | --- | --- | --- | --- | --- | --- | --- | --- | --- | --- | --- | --- | --- | --- | --- | --- |
| O=c1c2ccccc2nc(-c2cc3c(cc2Cl)Sc2nccn2S3(=O)=O)n1-c1ccccc1 | 94.6 | > 100 | > 100 | > 100 | > 100 | 31 | 29.8 | 24.7 | > 100 | > 100 | 38.2 | > 100 | > 100 | 30.8 | 36 | 43.5 | 52.2 | > 100 | 49.9 | 34.2 |
| CN1CCc2c3n(c4cc(Br)ccc24)[C@H](O)CCCC31 (stereo not given in full) | 3.08 | > 10 | > 10 | > 7.17 | 3.24 | 3.16 | 3.07 | 5.32 | 3.29 | 4.63 | 4.38 | > 10 | 2.97 | > 10 | 7.74 | 1.7 | 5.83 | 4.05 | > 10 | 5.61 |
| O=[N+]([O-])c1c(F)c(F)c2c(c1F)Nc1ccccc1S2 | 21.6 | 36.9 | 25.8 | 8.24 | 27.3 | 6.96 | 6.18 | 15.5 | 3.39 | 18.5 | 4.76 | 7.13 | 41.8 | 22.4 | 8.88 | 4.75 | 32.6 | 5.61 | 38.4 | 19.8 |
| CC[C@@]1(O)C(=O)OCc2c1cc1n(c2=O)Cc2c-1nc1ccccc1c2/C=N\NC(=O)C(N)CO (stereo not given in full) | 13 | > 100 | > 100 | > 27.2 | > 100 | > 100 | 22.8 | > 44 | 6.15 | > 100 | > 100 | 5.38 | 25.3 | > 100 | 7.73 | > 100 | 0.312 | 3.59 | > 100 | > 65.8 |
| O=C1NCC(CSc2nc3cc(C4CCCc5c4[nH]c4ccccc54)ccc3o2)N1 (stereo not given) | > 100 | > 100 | > 100 | > 100 | > 100 | > 100 | > 100 | > 100 | > 100 | > 100 | > 100 | > 100 | > 100 | > 100 | > 100 | > 100 | > 100 | > 100 | > 100 | > 100 |
| COC(=O)/C=C\COCC1C2CCC(=O)C21 (stereo not given) | > 25 | > 25 | > 25 | 1.29 | > 25 | > 25 | > 25 | > 25 | > 25 | 13.3 | > 25 | > 25 | 24.3 | > 25 | > 25 | > 25 | > 25 | > 25 | > 25 | > 25 |
| O=[N+]([O-])C(=C(Nc1ccccc1)Nc1ccccc1)/C(Cl)=C(\Cl)[N+](=O)[O-] | 15 | 35.6 | 13.7 | 3.18 | 7.08 | 28.9 | 10.7 | 14.8 | 11.4 | 14.2 | 10.8 | 11.2 | 53.7 | 20.9 | 6.13 | 31.8 | 22.4 | > 100 | 16.9 | 19.7 |

Source: PubChem BioAssay (NCI)
